The text below walks through data of patent publication US10597390B2, “Indoles for use in influenza virus infection” (Janssen Sciences Ireland UC, priority 2014, dated 2020).

What is called IC50 is the concentration needed to halve the response being measured. For orientation: CC50 means the concentration that lowers cell viability or growth by half. A high value points to lower toxicity to the cells.

For data set [1], the system named is influenza virus A/Taiwan/1/86 (H1N1). Put plainly: organism not typed. It is filed as cell-based. The conditions noted are these: CPE in MDCK cells, three days post-virus exposure, ATPlite. A general note: ATP-based viability assays read luminescence as a measure of living cells.
A short description of data set [2]: in vitro. The conditions noted are these: dog, TOX MDCK CC50.

With `Cc1cc(F)c2[nH]cc(-c3ncc(F)c(N[C@H]4CCC[C@@H](NC(=O)c5cn(C)cn5)C4)n3)c2c1` (racemic) [Compound 190], the IC50 in data set [1] (MDCK, 72 h) amounted to 11 nM. Half-maximal cytotoxicity in data set [2] (CC50 at 3 days) was put at 13.1 µM.

As for `C[C@H]1CC[C@H](C)N1C(=O)N[C@H]1CCC[C@@H](Nc2nc(-c3c[nH]c4c(F)cc(F)cc34)ncc2F)C1` (relative stereo) [Compound 14, N-((1R*3S*)-3-((2-(5,7-difluoro-1H-indol-3-yl)-5-fluoropyrimidin-4-yl)amino)cyclohexyl)-trans-2,5-dimethylpyrrolidine-1-carboxamide], in data set [1] (MDCK, 72 h), half-maximal inhibition (IC50) was put at 140 nM. Besides, the 50% cytotoxic concentration (CC50) at 3 days in data set [2] was 10.4 µM.

In data set [1] (MDCK, 72 h), `CC(=O)Nc1cc(C(=O)N[C@@H]2CCC[C@H](Nc3nc(-c4c[nH]c5c(F)cc(F)cc45)ncc3F)C2)n(C)n1` (relative stereo) [Compound 228, 3-acetamido-N-((1R*,3S*)-3-((2-(5,7-difluoro-1H-indol-3-yl)-5-fluoropyrimidin-4-yl)amino)cyclohexyl)-1-methyl-1H-pyrazole-5-carboxamide] showed an IC50 of 9 nM. This molecule also gave a CC50 at 3 days in data set [2] of over 25 µM.

On to `CC(C)(C)[C@H](CC(=O)O)Nc1nc(-c2c[nH]c3c(F)cc(F)cc23)ncc1F` [Compound 186], for which, in data set [1] (MDCK, 72 h), the IC50 was 10 nM. This molecule gave a 50% cytotoxic concentration (CC50) at 3 days in data set [2] of 3.8 µM.

For `Cn1nc(NS(N)(=O)=O)cc1C(=O)N[C@@H]1CCC[C@H](Nc2nc(-c3c[nH]c4c(F)cc(F)cc34)ncc2F)C1` (relative stereo) [Compound 227, N-((1R*,3S*)-3-((2-(5,7-difluoro-1H-indol-3-yl)-5-fluoropyrimidin-4-yl)-amino)cyclohexyl)-1-methyl-3-(sulfamoylamino)-1H-pyrazole-5-carboxamide], in data set [1] (MDCK, 72 h), half-maximal inhibition (IC50) required 15 nM. Besides, the CC50 at 3 days in data set [2] was over 25 µM.

Consider `Cn1nc(CO)cc1C(=O)N[C@@H]1CCC[C@H](Nc2nc(-c3c[nH]c4c(F)cc(F)cc34)ncc2F)C1` (relative stereo) [Compound 262, N-((1R*,3S*)-3-((2-(5,7-difluoro-1H-indol-3-yl)-5-fluoropyrimidin-4-yl)-amino)cyclohexyl)-3-(hydroxymethyl)-1-methyl-1H-pyrazole-5-carboxamide], for which half-maximal inhibition in data set [1] (MDCK, 72 h) (IC50) was put at 46 nM. The molecule further had a CC50 at 3 days in data set [2] of over 25 µM.

With `CC(C)(C)C(CC(=O)O)Nc1nc(-c2c[nH]c3c(F)cc(F)cc23)c(C#N)cc1F` (stereo not shown) [Compound 219], it took 5 nM to reach half-maximal inhibition in data set [1] (MDCK, 72 h) (IC50). Also, the CC50 at 3 days in data set [2] worked out at 0.21 µM.

Take `O=C(N[C@H]1CCC[C@@H](Nc2nc(-c3c[nH]c4c(F)cc(F)cc34)ncc2F)C1)N1CCCC1` (single isomer, unassigned) [Compound 9, N-((1R*,3S*)-3-((2-(5,7-difluoro-1H-indol-3-yl)-5-fluoropyrimidin-4-yl)-amino)cyclohexyl)pyrrolidine-1-carboxamide]: inhibition in data set [1] (MDCK, 72 h) was half-maximal at 3 nM (IC50). The same molecule yielded a CC50 at 3 days in data set [2] of over 25 µM.

`CC(C)(C)C(CC(=O)O)Nc1nc(-c2c[nH]c3c(F)cc(F)cc23)ncc1F` (racemic) [Compound 2]: half-maximal inhibition in data set [1] (MDCK, 72 h) (IC50) was put at 11 nM. In data set [2], the midpoint of cytotoxicity, the CC50 at 3 days, lay at 5.2 µM.

In data set [1] (MDCK, 72 h), `N#Cc1cc(F)c(N[C@H]2CCC[C@@H](NC(=O)[C@@H](O)c3ccccc3)C2)nc1-c1c[nH]c2c(F)cc(F)cc12` [Compound 213] returned a 50% inhibitory concentration (IC50) of 390 nM. In data set [2], this molecule came in with a CC50 at 3 days of 3.4 µM.

Regarding `Cc1nc(C(=O)N[C@@H]2CCC[C@H](Nc3nc(-c4c[nH]c5c(F)cc(F)cc45)ncc3F)C2)c(C)o1` (racemic) [Compound 93], the IC50 in data set [1] (MDCK, 72 h) worked out at 39 nM. In addition, the CC50 at 3 days in data set [2] is over 25 µM.

Consider `O=C(N[C@@H]1CCC[C@H](Nc2nc(-c3c[nH]c4c(F)cc(F)cc34)ncc2F)C1)c1ccc(O)nn1` [Compound 203], for which the IC50 in data set [1] (MDCK, 72 h) was 2 nM. In data set [2], this molecule came in with a CC50 at 3 days of over 25 µM.

The molecule `Cn1nc(N)cc1C(=O)N[C@@H]1CCC[C@H](Nc2nc(-c3c[nH]c4c(F)cc(F)cc34)ncc2F)C1` [Compound 85] showed an IC50 in data set [1] (MDCK, 72 h) of 2 nM. The CC50 at 3 days in data set [2] was over 25 µM.

`O=C(N[C@H]1CCC[C@@H](Nc2nc(-c3c[nH]c4c(F)cc(F)cc34)c(C(F)(F)F)cc2F)C1)c1ncn[nH]1` (racemic) [Compound 178] showed an IC50 in data set [1] (MDCK, 72 h) of 10 nM. Besides, in data set [2], the CC50 at 3 days was determined as 2.6 µM.

Molecule `Cc1cc(C(=O)N[C@@H]2CCC[C@H](Nc3nc(-c4c[nH]c5c(F)cc(F)cc45)ncc3F)C2)nn1C` (racemic) [Compound 96] gave a 50% inhibitory concentration (IC50) in data set [1] (MDCK, 72 h) of 5 nM. The molecule further gave a half-maximal cytotoxic concentration (CC50) at 3 days in data set [2] of 10.5 µM.

Take `O=C(NC1CCOC1)N[C@@H]1CCC[C@H](Nc2nc(-c3c[nH]c4c(F)cc(F)cc34)ncc2F)C1` (relative stereo) [Compound 15, 1-((1R*,3S*)-3-((2-(5,7-difluoro-1H-indol-3-yl)-5-fluoropyrimidin-4-yl)-amino)cyclohexyl)-3-(tetrahydrofuran-3-yl)urea]: the IC50 in data set [1] (MDCK, 72 h) came out at 42 nM. This molecule returned a CC50 at 3 days in data set [2] of over 25 µM.

Take `CN1CCC[C@H]1C(=O)N[C@H]1CCC[C@@H](Nc2nc(-c3c[nH]c4c(F)cc(F)cc34)ncc2F)C1` [Compound 82]: the concentration for half-maximal inhibition (IC50) in data set [1] (MDCK, 72 h) is 270 nM. In addition, in data set [2], the CC50 at 3 days is 12.9 µM.

Regarding `Cn1cnc(C(=O)N[C@@H]2CCC[C@H](Nc3nc(-c4c[nH]c5c(F)cc(F)cc45)c(C#N)cc3F)C2)c1` (racemic) [Compound 3], half-maximal inhibition in data set [1] (MDCK, 72 h) (IC50) required 5 nM. Moreover, in data set [2], the CC50 at 3 days is over 25 µM.

In the case of `CC(=O)NCc1cc(F)c(N[C@H]2CCC[C@@H](NC(=O)c3cn(C)cn3)C2)nc1-c1c[nH]c2c(F)cc(F)cc12` (racemic) [Compound 258], in data set [1] (MDCK, 72 h), inhibition was half-maximal at 160 nM (IC50). This molecule showed a CC50 at 3 days in data set [2] of over 25 µM.

In turn, `CC1(C(CC(=O)O)Nc2nc(-c3c[nH]c4c(F)cc(F)cc34)ncc2F)CCCC1` (stereo not shown) [Compound 249] showed an IC50 in data set [1] (MDCK, 72 h) of 11 nM. In data set [2], the midpoint of cytotoxicity, the CC50 at 3 days, lay at 1.2 µM.

Consider `Cc1cc(C(=O)N[C@@H]2CCC[C@H](Nc3nc(-c4c[nH]c5c(F)cc(F)cc45)c(C#N)cc3F)C2)nn1C` (racemic) [Compound 210], for which the IC50 in data set [1] amounted to 12 nM. The molecule also yielded a CC50 at 3 days in data set [2] of over 25 µM.

Consider `Cn1cnc(C(=O)N[C@H]2CCC[C@@H](Nc3nc(-c4c[nH]c5c(F)cc(F)cc45)c(C(F)(F)F)cc3F)C2)c1` (relative stereo) [Compound 16, N-((1S*,3R*)-3-((6-(5,7-difluoro-1H-indol-3-yl)-3-fluoro-5-(trifluoromethyl)pyridin-2-yl)amino)cyclohexyl)-1-methyl-1H-imidazole-4-carboxamide], for which, in data set [1] (MDCK, 72 h), the IC50 was determined as 22 nM. The molecule also came in with a CC50 at 3 days in data set [2] of 3.9 µM.

Take `Cn1cnc(C(=O)N[C@@H]2CCC[C@H](Nc3nc(-c4c[nH]c5c(F)cc(Cl)cc45)ncc3F)C2)c1` [Compound 26]: in data set [1] (MDCK, 72 h), the half-maximal inhibitory concentration (IC50) was found to be 3 nM. In data set [2], the CC50 at 3 days stood at 7.9 µM.

In turn, `COCc1cc(C(=O)N[C@@H]2CCC[C@H](Nc3nc(-c4c[nH]c5c(F)cc(F)cc45)ncc3F)C2)no1` [Compound 87] registered a half-maximal inhibitory concentration (IC50) in data set [1] (MDCK, 72 h) of 40 nM. In data set [2], this molecule returned a CC50 at 3 days of 2.4 µM.

With `Cc1[nH]nnc1C(=O)N[C@@H]1CCC[C@H](Nc2nc(-c3c[nH]c4c(F)cc(Cl)cc34)ncc2F)C1` [Compound 78], in data set [1] (MDCK, 72 h), half-maximal inhibition (IC50) required 2 nM. The molecule further registered a CC50 at 3 days in data set [2] of 5.7 µM.

As to `C[C@@H]1CC[C@H](C)N1C(=O)N[C@H]1CCC[C@@H](Nc2nc(-c3c[nH]c4c(F)cc(F)cc34)ncc2F)C1` (relative stereo) [Compound 13, N-((1R*,3S*)-3-((2-(5,7-difluoro-1H-indol-3-yl)-5-fluoropyrimidin-4-yl)-amino)cyclohexyl)-cis-2,5-dimethylpyrrolidine-1-carboxamide], the IC50 in data set [1] (MDCK, 72 h) is 44 nM. This molecule had a cytotoxic concentration (CC50) at 3 days in data set [2] of 10.7 µM.
